Patent US9868738B2, “Diazine-fused amidines as BACE inhibitors, compositions, and their use” (Merck Sharp & Dohme Corp., priority 2014, dated 2018)
One block for each molecule: values may come before it.

Key:
[1] = target: purified human autoBACE-2 (Homo sapiens (Human), UniProt Q9Y5Z0); assay: BACE-2 Assay (BACE-HTRF assay); format: biochemical; conditions: Ki calculated from IC50 using the Cheng-Prusoff equation; QSY7-EISEVNLDAEFC-Eu-amide substrate 200 nM, pH 5.0
Method: Inhibitor IC50s at purified human autoBACE-2 are determined in a time-resolved endpoint proteolysis assay that measures hydrolysis of the QSY7-EISEVNLDAEFC-Eu-amide FRET peptide substrate (BACE-HTRF assay). BACE-mediated hydrolysis of this peptide results in an increase in relative fluorescence (RFU) at 620 nm after excitation with 320 nm light. Inhibitor compounds, prepared at 3× the desired final concentration in 1×BACE assay buffer (20 mM sodium acetate pH 5.0, 10% glycerol, 0.1% Brij-35) supplemented with 7.5% DMSO are pre-incubated with an equal volume of autoBACE-2 enzyme diluted in 1×BACE assay buffer (final enzyme concentration 1 nM) in black 384-well NUNC plates for 30 minutes at 30° C. […] DMSO is present at […] final concentration in the assay. Following laser excitation of sample wells at 320 nm, the fluorescence signal at 620 nm is collected for 400 ms following a 50 μs delay on a RUBYstar HTRF plate reader (BMG Labtechnologies). Raw RFU data is normalized to maximum (1.0 nM BACE/DMSO) and minimum (no enzyme/DMSO) RFU values. IC50s are determined by nonlinear regression analysis (sigmoidal dose response, variable slope) of percent inhibition data with minimum and maximum values set to 0 and 100 percent respectively. Similar IC50s are obtained when using raw RFU data. The Ki values are calculated from the IC50 using the Cheng-Prusoff equation.

[2] = target: soluble human BACE1 catalytic domain (Homo sapiens (Human), UniProt P56817); assay: BACE-1 Ki Assay (BACE-1 HTRF FRET Assay); format: biochemical; conditions: Ki calculated from IC50 using the Cheng-Prusoff equation; QSY7-APPswe-Eu substrate 200 nM, pH 5.0
Sequence of soluble human BACE1 catalytic domain (P56817 75-416): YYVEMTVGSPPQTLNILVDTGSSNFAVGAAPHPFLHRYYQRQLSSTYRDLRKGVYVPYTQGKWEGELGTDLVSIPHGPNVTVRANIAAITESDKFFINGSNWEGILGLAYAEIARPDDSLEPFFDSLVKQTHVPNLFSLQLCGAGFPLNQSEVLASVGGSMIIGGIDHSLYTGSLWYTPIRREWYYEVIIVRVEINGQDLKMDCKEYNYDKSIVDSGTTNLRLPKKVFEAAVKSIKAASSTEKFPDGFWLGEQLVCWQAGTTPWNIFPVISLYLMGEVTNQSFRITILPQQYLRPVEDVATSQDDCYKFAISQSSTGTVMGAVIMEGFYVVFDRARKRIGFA
Method: In another embodiment, the compounds of the invention comprise the example compounds shown in the table below, or a tautomer thereof, or a pharmaceutically acceptable salt of said compound or said tautomer. Examples 2 to 42 were prepared using the method similar to Ex. 1. Example 44 to 51 were synthesized using the method similar to Ex. 43. BACE-1 values reported in this table were measured using BACE-1 Ki Assay (BACE-1 HTRF FRET Assay).
• Reagents: Na^+-Acetate pH 5.0; 1% Brij-35; Glycerol; Dimethyl Sulfoxide (DMSO); Recombinant human soluble BACE1 catalytic domain (>95% pure); APP Swedish mutant peptide substrate (QSY7-APP^swe-Eu): QSY7-EISEVNLDAEFC-Europium-amide.
A homogeneous time-resolved FRET assay can be used to determine IC50 values for inhibitors of the soluble human BACE1 catalytic domain. This assay monitors the increase of 620 nm fluorescence that resulted from BACE1 cleavage of an APPswedish APP^swe mutant peptide FRET substrate (QSY7-EISEVNLDAEFC-Europium-amide). This substrate contains an N-terminal QSY7 moiety that serves as a quencher of the C-terminal Europium fluorophore (620 nm Em). In the absence of enzyme activity, 620 nm fluorescence is low in the assay and increased linearly over 3 hours in the presence of uninhibited BACE1 enzyme. Inhibition of BACE1 cleavage of the QSY7-APP^swe-Eu substrate by inhibitors is manifested as a suppression of 620 nm fluorescence.
Varying concentrations of inhibitors at 3× the final desired concentration in a volume of 10 ul are preincubated with purified human BACE1 catalytic domain (3 nM in 10 μl) for 30 minutes at 30° C. in reaction buffer containing 20 mM Na-Acetate pH 5.0, 10% glycerol, 0.1% Brij-35 and 7.5% DSMO. Reactions are initiated by addition of 10 μl of 600 nM QSY7-APP^swe-Eu substrate (200 nM final) to give a final reaction volume of 30 μl in a 384 well Nunc HTRF plate. The reactions are incubated at 30° C. for 1.5 hours. The 620 nm fluorescence is then read on a Rubystar HTRF plate reader (BMG Labtechnologies) using a 50 millisecond delay followed by a 400 millisecond acquisition time window. Inhibitor IC50 values are derived from non-linear regression analysis of concentration response curves. Ki values are then calculated from IC50 values using the Cheng-Prusoff equation using a previously determined […] of 8 μM for the QSY7-APP^swe-Eu substrate at BACE1.

Sequence of purified human autoBACE-2 (Q9Y5Z0 63-473 limits assumed): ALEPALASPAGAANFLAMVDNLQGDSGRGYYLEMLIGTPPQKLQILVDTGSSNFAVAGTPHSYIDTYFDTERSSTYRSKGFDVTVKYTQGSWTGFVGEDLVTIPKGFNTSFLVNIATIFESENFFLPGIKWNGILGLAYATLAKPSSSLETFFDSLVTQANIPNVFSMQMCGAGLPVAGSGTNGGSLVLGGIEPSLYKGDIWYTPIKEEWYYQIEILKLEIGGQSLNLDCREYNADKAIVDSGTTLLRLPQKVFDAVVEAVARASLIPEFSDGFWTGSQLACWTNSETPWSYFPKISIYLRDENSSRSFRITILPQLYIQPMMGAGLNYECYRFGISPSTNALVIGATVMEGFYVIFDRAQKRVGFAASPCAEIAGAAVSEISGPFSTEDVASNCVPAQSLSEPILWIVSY

SMILES: C[C@@]1(c2cc(-c3cncc(Cl)c3)ccc2F)Cc2ncncc2C(=N)N1 [Example 4, (7S)-7-[5-(5-chloropyridin-3-yl)-2-fluoro-phenyl]-7-methyl-7,8-dihydropyrido[4,3-d]pyrimidin-5(6H)-imine]
Ki [1]: 130 nM
Ki [2]: 253 nM

SMILES: COc1cccc(-c2ccc(F)c([C@]3(C)Cc4ncncc4C(=N)N3)c2)c1 [Example 5, (7S)-7-(4-fluoro-3′-methoxybiphenyl-3-yl)-7-methyl-7,8-dihydro-pyrido[4,3-d]pyrimidin-5(6H)-imine]
Ki [1]: 53.5 nM
Ki [2]: 199 nM

SMILES: C[C@@]1(c2cc(-c3cccc(C(F)(F)F)c3)ccc2F)Cc2ncncc2C(=N)N1 [Example 6, (7S)-7-[4-fluoro-3′-(trifluoromethyl)biphenyl-3-yl]-7-methyl-7,8-dihydropyrido[4,3-d]pyrimidin-5(6H)-imine]
Ki [1]: 549 nM
Ki [2]: 3040 nM

SMILES: C[C@@]1(c2cc(-c3cncnc3)ccc2F)Cc2ncncc2C(=N)N1 [Example 7, (7S)-7-(2-fluoro-5-pyrimidin-5-ylphenyl)-7-methyl-7,8-dihydro-pyrido[4,3-d]pyrimidin-5(6H)-imine]
Ki [1]: 3460 nM
Ki [2]: 771 nM

SMILES: C[C@@]1(c2cc(-c3cccnc3)ccc2F)Cc2ncncc2C(=N)N1 [Example 10, (7S)-7-(2-fluoro-5-pyridin-3-ylphenyl)-7-methyl-7,8-dihydropyrido[4,3-d]pyrimidin-5(6H)-imine]
Ki [1]: 1180 nM
Ki [2]: 746 nM

SMILES: CC#Cc1cncc(-c2ccc(F)c([C@]3(C)Cc4ncncc4C(=N)N3)c2)c1 [Example 12, (7S)-7-[2-fluoro-5-(5-prop-1-yn-1-ylpyridin-3-yl)phenyl]-7-methyl-7,8-dihydropyrido[4,3-d]pyrimidin-5(6H)-imine]
Ki [1]: 20.2 nM
Ki [2]: 108 nM

SMILES: C[C@@]1(c2sc(-c3cccc(C#N)c3)cc2Cl)Cc2ncncc2C(=N)N1 [Example 13, 3-{4-chloro-5-[(7S)-5-imino-7-methyl-5,6,7,8-tetrahydropyrido[4,3-d]pyrimidin-7-yl]thiophen-2-yl}benzonitrile]
Ki [1]: 15.1 nM
Ki [2]: 35.2 nM

SMILES: C[C@@]1(c2sc(-c3cncc(C#N)c3)cc2Cl)Cc2ncncc2C(=N)N1 [Example 14, 5-{4-chloro-5-[(7S)-5-imino-7-methyl-5,6,7,8-tetrahydropyrido[4,3-d]pyrimidin-7-yl]thiophen-2-yl}pyridine-3-carbonitrile]
Ki [1]: 31.6 nM
Ki [2]: 75.2 nM

SMILES: C[C@@]1(c2sc(-c3ccc(F)c(C#N)c3)cc2Cl)Cc2ncncc2C(=N)N1 [Example 16, 5-{4-chloro-5-[(7S)-5-imino-7-methyl-5,6,7,8-tetrahydropyrido[4,3-d]pyrimidin-7-yl]thiophen-2-yl}-2-fluorobenzonitrile]
Ki [1]: 16.7 nM
Ki [2]: 36.4 nM

SMILES: C[C@@]1(c2sc(-c3cc(F)cc(-c4nnco4)c3)cc2Cl)Cc2ncncc2C(=N)N1 [Example 17, (7S)-7-{3-chloro-5-[3-fluoro-5-(1,3,4-oxadiazol-2-yl)phenyl]thiophen-2-yl}-7-methyl-7,8-dihydropyrido[4,3-d]pyrimidin-5(6H)-imine]
Ki [1]: 21.6 nM
Ki [2]: 16.5 nM

SMILES: C[C@]1(c2sc(-c3cccc(-c4nnco4)c3)cc2Cl)NC(=N)c2cncnc2C1(F)F [Example 20, (7S)-7-{3-chloro-5-[3-(1,3,4-oxadiazol-2-yl)phenyl]thiophen-2-yl}-8,8-difluoro-7-methyl-7,8-dihydropyrido[4,3-d]pyrimidin-5(6H)-imine]
Ki [1]: 118 nM
Ki [2]: 33.3 nM

SMILES: Cc1ncc2c(n1)C[C@@](C)(c1cc(-c3cccc(C#N)c3)cs1)NC2=N [Example 23, 3-{5-[(7S)-5-imino-2,7-dimethyl-5,6,7,8-tetrahydropyrido[4,3-d]pyrimidin-7-yl]thiophen-3-yl}benzonitrile]
Ki [1]: 87.9 nM
Ki [2]: 151 nM

SMILES: Cc1ncc2c(n1)C[C@@](C)(c1sc(-c3cccc(C#N)c3)cc1Cl)NC2=N [Example 24, 3-{4-chloro-5-[(7S)-5-imino-2,7-dimethyl-5,6,7,8-tetrahydropyrido[4,3-d]pyrimidin-7-yl]thiophen-2-yl}benzonitrile]
Ki [1]: 28 nM
Ki [2]: 52.7 nM

SMILES: Cc1ncc2c(n1)C[C@@](C)(c1sc(-c3cccc(-c4nnco4)c3)cc1Cl)NC2=N [Example 26, (7S)-7-{3-chloro-5-[3-(1,3,4-oxadiazol-2-yl)phenyl]thiophen-2-yl}-2,7-dimethyl-7,8-dihydropyrido[4,3-d]pyrimidin-5(6H)-imine]
Ki [1]: 29.1 nM
Ki [2]: 10.6 nM

SMILES: Cc1ncc2c(n1)C[C@@](C)(c1sc(-c3ccc(F)c(C#N)c3)cc1Cl)NC2=N [Example 27, 5-{4-chloro-5-[(7S)-5-imino-2,7-dimethyl-5,6,7,8-tetrahydropyrido[4,3-d]pyrimidin-7-yl]thiophen-2-yl}-2-fluorobenzonitrile]
Ki [1]: 28.3 nM
Ki [2]: 52.1 nM

Continued by falling Ki [1], values first:

Ki [1]: 483 nM
Ki [2]: 601 nM
SMILES: C[C@@]1(c2cc(-c3cncc(C#N)c3)ccc2F)Cc2ncncc2C(=N)N1 [Example 9, 5-{4-fluoro-3-[(7S)-5-imino-7-methyl-5,6,7,8-tetrahydropyrido[4,3-d]pyrimidin-7-yl]phenyl}pyridine-3-carbonitrile]

Ki [1]: 259 nM
Ki [2]: 827 nM
SMILES: C[C@@]1(c2cc(-c3cccc(C#N)c3)ccc2F)Cc2ncncc2C(=N)N1 [Example 11, 4′-fluoro-3′-[(7S)-5-imino-7-methyl-5,6,7,8-tetrahydropyrido[4,3-d]pyrimidin-7-yl]biphenyl-3-carbonitrile]

Ki [1]: 128 nM
Ki [2]: 246 nM
SMILES: C[C@]1(c2sc(-c3cccc(C#N)c3)cc2Cl)NC(=N)c2cncnc2C1(F)F [Example 19, 3-{4-chloro-5-[(7S)-8,8-difluoro-5-imino-7-methyl-5,6,7,8-tetrahydropyrido[4,3-d]pyrimidin-7-yl]thiophen-2-yl}benzonitrile]

Ki [1]: 87.8 nM
Ki [2]: 225 nM
SMILES: COc1cncc(-c2ccc(F)c([C@]3(C)Cc4ncncc4C(=N)N3)c2)c1 [Example 8, (7S)-7-[2-fluoro-5-(5-methoxypyridin-3-yl)phenyl]-7-methyl-7,8-dihydropyrido[4,3-d]pyrimidin-5(6H)-imine]

Ki [1]: 62.4 nM
Ki [2]: 125 nM
SMILES: Cc1ncc2c(n1)C[C@@](C)(c1sc(-c3cncc(C#N)c3)cc1Cl)NC2=N [Example 25, 5-{4-chloro-5-[(7S)-5-imino-2,7-dimethyl-5,6,7,8-tetrahydropyrido[4,3-d]pyrimidin-7-yl]thiophen-2-yl}pyridine-3-carbonitrile]

Ki [1]: 39.8 nM
Ki [2]: 81.5 nM
SMILES: C[C@]1(c2cc(-c3cccc(C#N)c3)cs2)NC(=N)c2cncnc2C1(F)F [Example 18, 3-{5-[(7S)-8,8-difluoro-5-imino-7-methyl-5,6,7,8-tetrahydropyrido[4,3-d]pyrimidin-7-yl]thiophen-3-yl}benzonitrile]

Ki [1]: 37.3 nM
Ki [2]: 11.1 nM
SMILES: C[C@@]1(c2sc(-c3cccc(-c4nnco4)c3)cc2Cl)Cc2ncncc2C(=N)N1 [Example 15, (7S)-7-{3-chloro-5-[3-(1,3,4-oxadiazol-2-yl)phenyl]thiophen-2-yl}-7-methyl-7,8-dihydropyrido[4,3-d]pyrimidin-5(6H)-imine]

Ki [1]: 24.4 nM
Ki [2]: 16.6 nM
SMILES: Cc1ncc2c(n1)C[C@@](C)(c1sc(-c3cc(F)cc(-c4nnco4)c3)cc1Cl)NC2=N [Example 28, (7S)-7-{3-chloro-5-[3-fluoro-5-(1,3,4-oxadiazol-2-yl)phenyl]thiophen-2-yl}-2,7-dimethyl-7,8-dihydropyrido[4,3-d]pyrimidin-5(6H)-imine]
